Laboratory results reported in patent publication US7557103B2, “Imidazopyridazine compounds” (Eli Lilly and Company, priority 2005, dated 2009).
Where a chain is given by its changes, count along the chain named. Where two headings read alike, the source gives them in different places.

Experiments:
[1] = Rat intravenous pharmacokinetics (volume of distribution, plasma clearance); details: for clearance: male, Sprague-Dawley, plasma, iv, 3 mg/kg; for rat Vdist: single intravenous dose (3 mg/kg)
Experimental: (§1) To test for volume of distribution, Male Sprague Dawley rats (N=3) are administered a single 3 mg/kg intravenous dose of compound. Multiple plasma samples are collected at time points from 0.08 to 24 hours post-dose. The plasma samples are analyzed by LC/MS/MS to determine the plasma concentrations. Plasma pharmacokinetic calculations are performed to determine the pharmacokinetic parameters including Vdist and plasma clearance (Clp).

in vivo = details: male, Sprague-Dawley, rat, iv, 3 mg/kg
Experimental: as §1

[2] = male, Sprague-Dawley, in vivo, iv, 3 mg/kg
Experimental: as §1

[3] = molecular target: T1, binding of ^125I-sauvagine to the cerebellum (Rattus norvegicus, UniProt P35353); test: In vivo potency assessment using ex vivo binding; details: oral route, ex vivo binding of 125I-sauvagine to the cerebellum
T1 construct: from tissue; host or cells: rat cerebellum
T1 sequence (P35353 24-415): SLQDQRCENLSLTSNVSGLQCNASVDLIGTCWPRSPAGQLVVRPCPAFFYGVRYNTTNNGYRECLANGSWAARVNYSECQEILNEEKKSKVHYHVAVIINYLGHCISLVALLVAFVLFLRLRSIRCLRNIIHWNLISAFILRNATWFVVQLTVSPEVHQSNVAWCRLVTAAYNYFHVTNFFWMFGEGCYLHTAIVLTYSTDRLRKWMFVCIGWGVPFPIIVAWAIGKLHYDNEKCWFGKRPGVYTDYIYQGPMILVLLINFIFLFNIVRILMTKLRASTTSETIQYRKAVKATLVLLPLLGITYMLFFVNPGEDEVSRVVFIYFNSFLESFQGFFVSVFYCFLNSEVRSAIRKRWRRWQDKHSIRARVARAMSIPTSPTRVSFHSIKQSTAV
Experimental: To assess in vivo potency, a compound of the present invention is evaluated using ex vivo binding. Using the procedures as provided in D. R. Gehlert et al., EJP 509: 145-153 (2005), a compound is administered to a rat via the oral route.

human CRF2 = molecular target: T2, human CRF2 (Homo sapiens, UniProt Q13324); test: CRF2 filter binding assay; details: 50 μM compound, HEK-hCRF2 membranes, 125I-sauvagine; read-out: percent inhibition at 50 μM
T2 construct: expressed in transfected cells; membranes
T2 sequence (Q13324 1-411): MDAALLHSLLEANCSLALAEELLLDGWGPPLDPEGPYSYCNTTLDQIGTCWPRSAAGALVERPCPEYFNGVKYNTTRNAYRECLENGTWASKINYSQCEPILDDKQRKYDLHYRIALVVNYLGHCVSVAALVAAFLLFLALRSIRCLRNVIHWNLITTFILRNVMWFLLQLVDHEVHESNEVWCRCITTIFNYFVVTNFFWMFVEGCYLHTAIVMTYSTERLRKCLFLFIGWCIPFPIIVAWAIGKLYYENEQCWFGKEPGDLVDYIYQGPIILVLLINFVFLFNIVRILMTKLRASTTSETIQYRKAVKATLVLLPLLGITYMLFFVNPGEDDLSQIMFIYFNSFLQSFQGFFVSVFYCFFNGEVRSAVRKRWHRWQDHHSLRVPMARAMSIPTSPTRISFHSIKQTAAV
Experimental: The limitations of plasmid-based human CRF2 expression, in terms of generating a recombinant cell line with sufficient receptor density to develop a binding assay, are overcome by using a Phoenix retroviral expression system licensed from Stanford. The stable HEK-hCRF2 cell line is used to prepare membranes and binding reactions (200 A1) are set up as follows: 50 ul of ^125I-sauvagine (0.2 nM final concentration), 501 compound and 100 μl CRF2 membrane (25 μg/reaction). The reactions are incubated at room temperature for 2 hours and then terminated by filtration through pre-treated FB Millipore glass fiber filter plates (96 well). The plates are washed twice with ice-cold assay buffer (50 mM tris, 12.5 mM NaCl, 1 mM EDTA, 10 mM MgCl2, 0.05% BSA, pH 7.2), air dried over night and counted with 100 μl Microscint 40 in a MicroBeta counter. Non-specific binding (NSB) is determined in the presence of 0.5 μM non-labeled sauvagine. Alternatively, compounds are evaluated using a Scintillation Proximity assay. […] Bound radioactivity is assessed using a Wallac Trilux scintillation counter. Binding is assessed typically using triplicate determinations and the median data points plotted by Graph Pad Prism. […]

human CRF1 = molecular target: T3, human CRF1 (Homo sapiens, UniProt P34998); test: CRF1 filter binding assay; details: HEK-hCRF1 membranes, 125I-sauvagine; read-out: Ki (inhibition constant)
T3 construct: expressed in transfected cells; membranes
T3 sequence (P34998 24-415): T1 sequence (P35353 24-415) with R6H, N9S, T13A, V16I, V153M, A163G, V209I, H229Y, R356H
Experimental: The limitations of plasmid-based human CRF1 expression, in terms of generating a recombinant cell line with sufficient receptor density to develop a binding assay, are overcome by using a Phoenix retroviral expression system licensed from Stanford. The stable HEK-hCRF1 cell line is used to prepare membranes and binding reactions (200 μl) are set up as follows: 50 μl of ^125I-sauvagine (0.2 nM final), 50 μl compound and 100 μL CRF1 membrane (25 μg/reaction). The reactions are incubated at room temperature for 2 hours and then terminated by filtration through pre-treated FB Millipore glass fiber filter plates (96 well). The plates are wash twice with ice-cold assay buffer (50 mM tris, 12.5 mM NaCl, 1 mM EDTA, 10 mM MgCl2, 0.05% BSA, pH 7.2), air dried over night and counted with 100 μl Microscint 40 in a MicroBeta counter. Non-specific binding (NSB) is determined in the presence of 0.5 μM non-labeled sauvagine. Triplicate determinations are typically run and the median data points plotted by Graph Pad Prism.

SMILES | rat Vdist [1] | clearance (in vivo) | rat Vdist [2] | other results
CCC(CC)c1cc(C)nn2c(-c3cc4ccc(Cl)cc4n3C)c(C)nc12 [Example 34, 3-(6-chloro-1-methyl-1H-indol-2-yl)-8-(1-ethyl-propyl)-2,6-dimethyl-imidazo[1,2-b]pyridazine] |  | 14 mL/min/kg | 15 L/kg | ED50 [3]: 5.5 mg/kg
CCC(CC)c1cc(C)nn2c(-c3cc4cc(F)ccc4n3C)c(C)nc12 [Example 8, 8-(1-ethyl-propyl)-2,6-dimethyl-3-(5-fluoro-1-methyl-indol-2-yl)-imidazo[1,2-b]pyridazine] |  | 29 mL/min/kg | 17 L/kg | 
CCC(CC)c1cc(C)nn2c(-c3c(C)oc4c(C(C)(C)O)cccc34)c(C)nc12 [Example 88, 2-{3-[8-(1-ethyl-propyl)-2,6-dimethyl-imidazo[1,2-b]pyridazin-3-yl]-2-methyl-benzofuran-7-yl}-propan-2-ol] |  |  |  | inhibition at 50 µM (human CRF2): 27 ± 3%; Ki (human CRF1): 19.2 ± 4.8 nM
CCC(CC)c1cc(C)nn2c(-c3sc4ccc(F)cc4c3C)c(C)nc12 [Example 1, 8-(1-ethyl-propyl)-2,6-dimethyl-3-(5-fluoro-3-methyl-benzo[b]thiophen-2-yl)-imidazo[1,2-b]pyridazine] | 8 L/kg |  |  | clearance [1]: 9 mL/min/kg; Ki (human CRF1): 16.3 nM
CCC(CC)c1cc(C)nn2c(-c3sc4ccccc4c3C)c(C)nc12 [Example 2, 8-(1-ethyl-propyl)-2,6-dimethyl-3-(3-methyl-benzo[b]thiophen-2-yl)-imidazo[1,2-b]pyridazine] |  | 12 mL/min/kg | 10 L/kg | 

The next lines start with results.

rat Vdist [1] | clearance (in vivo) | rat Vdist [2] | SMILES | other results
114 L/kg |  |  | CCCCN(CC)c1nc(C)nc2c1c(C)cn2-c1c(C)cc(C)cc1C [CP154526] | clearance [1]: 83 mL/min/kg
76 L/kg |  |  | CCCN(CCC)c1cc(C)nc2c(-c3cnc(N(C)C)cc3C)c(C)nn12 [NBI30775] | 
